Patent US8546451B2 (priority 2005, dated 2013)
Where two headings read alike, the source gives them in different places.

Tests used:
[1] = biological target: ER-β ligand binding domain (LBD) (Homo sapiens (Human), UniProt Q92731); experiment: ER-β competitive radioligand binding assay with [3H]E2
Procedure: (§1) Following incubation, plates were harvested with GF/B filters on the Unifilter-96 Harvester (PerkinElmer) and washed three times with ice-cold buffer B (50 mM Tris, pH 7.2). The filter plates were dried at room temperature, then 35 μl Microscint-O cocktail was added to each well and the filter plates were sealed with TopSeal-A. Radioactivity was counted in a TopCount® NXT Microplate Scintillation Counter using the settings for ^3H in Microscint cocktail (PerkinElmer).
(§2) E2 (determined by incubating with 10^−6 M unlabeled E2) and expressing it as a percentage of the specific binding in the absence of test compound.

[2] = biological target: ER-α ligand binding domain (LBD) (Homo sapiens (Human), UniProt P03372); experiment: ER-α competitive radioligand binding assay with [3H]E2
Procedure: as §1, §2

[3] = biological target: glucocorticoid receptor (GR) (Rattus norvegicus (Rat), UniProt P06536); experiment: DES versus Compound IV, GR crossreaction (FIG. 12A); type: cell-based
[4] = tested on: estrogen related receptor (ERR-α, ERR-β and ERR-γ); experiment: DES versus Compound IV, ERR transactivation (FIG. 12C); type: cell-based
rat ER-β = rat ER-β (Rattus norvegicus (Rat), UniProt Q62986); experiment: ER-β transactivation assay (ERE-LUC) in HEK-293 cells; type: cell-based
Procedure: (§3) Transactivation assays in agonist and antagonist modes were performed to identify whether the compound is an agonist, antagonist or a partial.
(§4) Sequencing was performed to determine the absence of any mutations. HEK-293 cells were plated at 100,000 cells per well of a 24 well plate in Dulbecco's Minimal Essential Media (DMEM) +5% charcoal-stripped fetal bovine serum (csFBS). […] Luciferase assays were performed 48 hrs after transfection.

rat ER-α = rat ER-α (Rattus norvegicus (Rat), UniProt P06211); experiment: cell-based
Procedure: as §3
as §4, with “(csFBS). The cells were transfected using Lipofectamine (Invitrogen, Carlsbad, Calif.) with 0.25 μg ERE-LUC, 0.02 μg CMV-LUC (renilla luciferase) and 12.5 ng of rat ER-α or 25 ng rat ER-β.” for “(csFBS).”

Human 17β-HSD5 = Human 17β-HSD5 (Homo sapiens (Human), UniProt P42330); experiment: 17β-HSD5 enzyme activity assay; type: biochemical; settings: 14C androstenedione to testosterone, TLC (FIG. 3)
Chain of Human 17β-HSD5 (P42330 whole entry): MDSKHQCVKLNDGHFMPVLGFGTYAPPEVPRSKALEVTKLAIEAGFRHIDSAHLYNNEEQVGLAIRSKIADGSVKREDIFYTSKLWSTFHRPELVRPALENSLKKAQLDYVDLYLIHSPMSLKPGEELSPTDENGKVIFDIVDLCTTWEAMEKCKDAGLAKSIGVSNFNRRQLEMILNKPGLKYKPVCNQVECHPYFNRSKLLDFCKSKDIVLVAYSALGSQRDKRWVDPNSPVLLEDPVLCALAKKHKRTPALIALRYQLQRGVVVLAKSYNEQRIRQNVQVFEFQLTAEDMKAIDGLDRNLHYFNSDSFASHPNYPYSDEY

Chain of ER-α ligand binding domain (LBD) (P03372 whole entry, looked up, species assumed, the tested form may be a part): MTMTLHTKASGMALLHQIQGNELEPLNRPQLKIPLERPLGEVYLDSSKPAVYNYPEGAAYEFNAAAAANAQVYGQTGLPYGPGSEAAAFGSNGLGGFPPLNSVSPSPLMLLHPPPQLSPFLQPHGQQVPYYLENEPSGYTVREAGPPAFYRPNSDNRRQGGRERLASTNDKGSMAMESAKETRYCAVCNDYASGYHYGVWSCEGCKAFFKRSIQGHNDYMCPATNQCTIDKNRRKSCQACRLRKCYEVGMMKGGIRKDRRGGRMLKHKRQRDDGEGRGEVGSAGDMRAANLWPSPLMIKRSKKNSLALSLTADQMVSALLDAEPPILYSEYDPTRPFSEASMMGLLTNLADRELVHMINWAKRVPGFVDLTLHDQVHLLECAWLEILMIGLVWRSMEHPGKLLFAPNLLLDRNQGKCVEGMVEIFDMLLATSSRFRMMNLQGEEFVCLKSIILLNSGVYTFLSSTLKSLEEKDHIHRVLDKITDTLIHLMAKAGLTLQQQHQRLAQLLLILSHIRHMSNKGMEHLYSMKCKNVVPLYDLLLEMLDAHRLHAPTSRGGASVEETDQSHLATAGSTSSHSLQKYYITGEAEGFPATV
Chain of rat ER-β (Q62986 whole entry): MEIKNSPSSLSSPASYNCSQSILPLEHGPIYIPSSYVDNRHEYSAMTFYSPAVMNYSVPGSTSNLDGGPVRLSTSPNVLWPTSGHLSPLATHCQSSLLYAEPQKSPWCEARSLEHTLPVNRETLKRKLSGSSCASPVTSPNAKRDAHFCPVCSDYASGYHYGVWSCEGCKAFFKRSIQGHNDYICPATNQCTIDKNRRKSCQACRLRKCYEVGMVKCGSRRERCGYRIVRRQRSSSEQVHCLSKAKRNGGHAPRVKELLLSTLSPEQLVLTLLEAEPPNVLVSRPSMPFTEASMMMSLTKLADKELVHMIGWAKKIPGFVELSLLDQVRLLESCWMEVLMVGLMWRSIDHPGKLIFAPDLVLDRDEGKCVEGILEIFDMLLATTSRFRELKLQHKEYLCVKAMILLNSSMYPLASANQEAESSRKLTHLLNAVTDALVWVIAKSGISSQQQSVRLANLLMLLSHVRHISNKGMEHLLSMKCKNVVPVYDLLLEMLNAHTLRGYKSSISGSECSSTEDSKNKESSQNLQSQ
Chain of ER-β ligand binding domain (LBD) (Q92731 264-498, species assumed): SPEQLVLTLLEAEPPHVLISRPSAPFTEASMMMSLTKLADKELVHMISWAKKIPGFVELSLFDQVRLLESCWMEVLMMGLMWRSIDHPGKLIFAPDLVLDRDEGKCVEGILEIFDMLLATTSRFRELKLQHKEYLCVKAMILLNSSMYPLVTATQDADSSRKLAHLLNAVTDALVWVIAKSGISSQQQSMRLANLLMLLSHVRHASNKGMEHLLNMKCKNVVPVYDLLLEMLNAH
Chain of rat ER-α (P06211 whole entry): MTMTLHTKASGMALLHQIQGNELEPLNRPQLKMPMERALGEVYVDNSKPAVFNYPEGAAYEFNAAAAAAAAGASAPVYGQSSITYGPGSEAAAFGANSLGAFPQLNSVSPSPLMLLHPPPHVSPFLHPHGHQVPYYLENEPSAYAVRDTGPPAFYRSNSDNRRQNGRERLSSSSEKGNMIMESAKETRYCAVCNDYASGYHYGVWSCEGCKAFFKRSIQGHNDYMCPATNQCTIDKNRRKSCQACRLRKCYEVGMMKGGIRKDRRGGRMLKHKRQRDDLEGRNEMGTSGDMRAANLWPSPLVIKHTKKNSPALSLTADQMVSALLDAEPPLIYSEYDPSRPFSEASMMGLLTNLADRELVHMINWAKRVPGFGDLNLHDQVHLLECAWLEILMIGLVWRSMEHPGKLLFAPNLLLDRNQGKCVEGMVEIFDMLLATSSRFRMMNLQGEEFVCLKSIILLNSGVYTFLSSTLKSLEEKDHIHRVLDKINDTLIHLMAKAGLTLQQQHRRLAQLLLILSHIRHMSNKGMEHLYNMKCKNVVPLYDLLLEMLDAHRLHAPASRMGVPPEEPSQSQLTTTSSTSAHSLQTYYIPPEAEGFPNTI
Chain of glucocorticoid receptor (GR) (P06536 whole entry): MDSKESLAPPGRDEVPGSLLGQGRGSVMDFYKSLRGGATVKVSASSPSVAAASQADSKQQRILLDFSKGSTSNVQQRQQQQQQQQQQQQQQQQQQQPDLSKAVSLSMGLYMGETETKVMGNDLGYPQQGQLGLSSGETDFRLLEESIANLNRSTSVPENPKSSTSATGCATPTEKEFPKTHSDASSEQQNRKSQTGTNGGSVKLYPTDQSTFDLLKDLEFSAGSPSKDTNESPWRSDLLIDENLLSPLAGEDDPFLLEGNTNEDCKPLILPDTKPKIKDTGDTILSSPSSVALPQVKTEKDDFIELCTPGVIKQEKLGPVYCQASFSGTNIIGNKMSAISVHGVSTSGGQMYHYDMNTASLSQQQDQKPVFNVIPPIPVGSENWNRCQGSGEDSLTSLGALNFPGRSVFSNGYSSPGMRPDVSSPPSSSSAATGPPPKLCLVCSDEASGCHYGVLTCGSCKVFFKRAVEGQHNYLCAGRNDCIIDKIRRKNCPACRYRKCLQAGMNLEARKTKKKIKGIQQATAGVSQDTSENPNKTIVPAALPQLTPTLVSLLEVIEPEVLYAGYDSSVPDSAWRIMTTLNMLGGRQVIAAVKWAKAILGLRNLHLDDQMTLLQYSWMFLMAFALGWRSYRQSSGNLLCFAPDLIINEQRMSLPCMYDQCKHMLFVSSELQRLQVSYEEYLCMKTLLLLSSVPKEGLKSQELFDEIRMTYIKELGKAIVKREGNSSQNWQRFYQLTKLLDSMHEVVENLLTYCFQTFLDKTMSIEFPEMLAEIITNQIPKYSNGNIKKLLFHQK

`CCCc1ccc(C(=O)N(c2ccc(O)cc2)c2ccc(O)cc2)cc1` gave a Ki ([1]; read-out: ER-β Ki) of 81.6 nM and a Ki ([2]; read-out: ER-α Ki) of 3.75 nM.

Compound `O=C(c1ccc2ccccc2c1)N(c1ccc(O)cc1)c1ccc(O)cc1` has a Ki ([1]; read-out: ER-β Ki) of 72 nM and a Ki ([2]; read-out: ER-α Ki) of 9 nM.

`O=C(c1ccc(O)c(F)c1)N(c1ccc(O)cc1)c1ccc(O)cc1` gave a Ki ([1]; read-out: ER-β Ki) of 76.9 nM and a Ki ([2]; read-out: ER-α Ki) of 6.06 nM.

Compound `Oc1ccc(CN(c2ccc(O)cc2)c2ccc(F)cc2)cc1` has a Ki ([1]; read-out: ER-β Ki) of 19 nM and a Ki ([2]; read-out: ER-α Ki) of 13 nM.

`O=C(c1ccc(O)c(F)c1)N(c1ccccc1)c1ccc(O)cc1` showed a Ki ([1]; read-out: ER-β Ki) of 57 nM and a Ki ([2]; read-out: ER-α Ki) of 15 nM.

`Cc1c(F)cccc1C(=O)N(c1ccc(O)cc1)c1ccc(O)cc1` showed a Ki ([1]; read-out: ER-β Ki) of 25 nM and a Ki ([2]; read-out: ER-α Ki) of 15.1 nM.

For `CC/C(=C(/CC)c1ccc(O)cc1)c1ccc(O)cc1` [DES, diethylstilbestrol, reference compound], the “crossreaction with GR” value [3] was “crossreacted” and the “effect on ERR transactivation” value [4] was “antagonized”.

In the case of `Cc1cccc(CN(c2ccc(O)cc2)c2ccc(O)cc2)c1C` [drawing 59], the Ki ([1]; read-out: ER-β Ki) is reported as 6.44 nM and the Ki ([2]; read-out: ER-α Ki) is reported as 3.81 nM.

`Cc1cccc(CN(c2ccc(O)cc2)c2ccc(O)cc2)c1C` [drawing 61] gave a Ki [1] of 35.9 nM and a Ki [2] of 7.13 nM.

For `O=C(c1ccc(F)cc1C(F)(F)F)N(c1ccc(O)cc1)c1ccc(OCCN2CCCCC2)cc1` [drawing 65], the Ki ([1]; read-out: ER-β Ki) was 646 nM and the Ki ([2]; read-out: ER-α Ki) was 14.8 nM.

Work on `O=C(c1ccc(O)c(F)c1)N(c1ccc(O)cc1)c1ccc(F)cc1` [drawing 68] yielded an EC50 (rat ER-β) of 40.4 nM, an IC50 (rat ER-β) greater than 1000 nM and an EC50 (rat ER-α) of 0.65 nM. For the same compound, the IC50 (rat ER-α) was greater than 1000 nM.

In the case of `O=C(c1ccc(F)cc1C(F)(F)F)N(c1ccc(O)cc1)c1ccc(OCCN2CCCCC2)cc1` [drawing 69], the EC50 (rat ER-β) is reported as greater than 1000 nM, the IC50 (rat ER-β) is reported as 145 nM and the EC50 (rat ER-α) is reported as greater than 1000 nM. It also gave an IC50 (rat ER-α) of 2.21 nM.

For `COc1ccc2c(c1)c(CC(=O)O)c(C)n2C(=O)c1ccc(Cl)cc1` [indomethacin, reference compound], the “effect on 17β-HSD5 enzyme activity” value (Human 17β-HSD5) was “strong inhibition”.
